The subject of the assay is T-47D. The assay is described as follows: Cellular Assay T-47D. The following applies: Homo sapiens, T47D; T-47D cells. The format is cell-based.
Turning to `Cc1cc(C(C)Nc2ccc(C#N)cc2C(=O)O)c2oc(N3CCC(C)(C)CC3)cc(=O)c2c1` (stereo not shown) [Example 6, 5-Cyano-2-[1-[2-(4,4-dimethyl-1-piperidyl)-6-methyl-4-oxo-chromen-8-yl]ethylamino]benzoic acid], the EC50 was in the range of 1 to 5 µM. The value for `Cc1cc(C(C)Nc2ccc(Br)cc2C(=O)O)c2oc(N3CCC(C)(C)CC3)cc(=O)c2c1` (stereo not shown) [Example 7, 5-Bromo-2-[1-[2-(4,4-dimethyl-1-piperidyl)-6-methyl-4-oxo-chromen-8-yl]ethylamino]benzoic acid] was 5 to 15 µM; that for `Cc1cc(C(C)Nc2cc(Cl)ccc2C(=O)O)c2oc(N3CCC(C)(C)CC3)cc(=O)c2c1` (stereo not shown) [Example 10, 4-Chloro-2-[1-[2-(4,4-dimethyl-1-piperidyl)-6-methyl-4-oxo-chromen-8-yl]ethylamino]benzoic acid] was 15 to 24 µM.

As for `Cc1cc(C(C)Nc2c(Cl)cccc2C(=O)O)c2oc(N3CCC(C)(C)CC3)cc(=O)c2c1` (stereo not shown) [Example 11, 3-Chloro-2-[1-[2-(4,4-dimethyl-1-piperidyl)-6-methyl-4-oxo-chromen-8-yl]ethylamino]benzoic acid], the EC50 fell in the range of 15 to 24 µM. The value for `Cc1cc(C(C)Nc2cc(C)c(C)cc2C(=O)O)c2oc(N3CCC(C)(C)CC3)cc(=O)c2c1` (stereo not shown) [Example 12, 2-[1-[2-(4,4-Dimethyl-1-piperidyl)-6-methyl-4-oxo-chromen-8-yl]ethylamino]-4,5-dimethyl-benzoic acid] was more than 24 µM; that for `Cc1cc(C(C)Nc2cc(F)c(F)cc2C(=O)O)c2oc(N3CCC(C)(C)CC3)cc(=O)c2c1` (stereo not shown) [Example 13, 2-[1-[2-(4,4-Dimethyl-1-piperidyl)-6-methyl-4-oxo-chromen-8-yl]ethylamino]-4,5-difluoro-benzoic acid] was 15 to 24 µM; that for `Cc1cc(C(C)Nc2ccc(F)cc2C(=O)O)c2oc(N3CCC(C)(C)CC3)cc(=O)c2c1` (stereo not shown) [Example 14, 2-[1-[2-(4,4-Dimethyl-1-piperidyl)-6-methyl-4-oxo-chromen-8-yl]ethylamino]-5-fluoro-benzoic acid] was 1 to 5 µM. Then `COc1ccc(NC(C)c2cc(C)cc3c(=O)cc(N4CCC(C)(C)CC4)oc23)c(C(=O)O)c1` (stereo not shown) [Example 15, 2-[1-[2-(4,4-Dimethyl-1-piperidyl)-6-methyl-4-oxo-chromen-8-yl]ethylamino]-5-methoxy-benzoic acid], with 5 to 15 µM; and `COc1cc(NC(C)c2cc(C)cc3c(=O)cc(N4CCC(C)(C)CC4)oc23)c(C(=O)O)cc1OC` (stereo not shown) [Example 16, 2-[1-[2-(4,4-Dimethyl-1-piperidyl)-6-methyl-4-oxo-chromen-8-yl]ethylamino]-4,5-dimethoxy-benzoic acid], with more than 24 µM; and `Cc1cc(C(C)Nc2c(C)cccc2C(=O)O)c2oc(N3CCC(C)(C)CC3)cc(=O)c2c1` (stereo not shown) [Example 17, 2-[1-[2-(4,4-Dimethyl-1-piperidyl)-6-methyl-4-oxo-chromen-8-yl]ethylamino]-3-methyl-benzoic acid], with more than 24 µM. The value for `Cc1cc(C(C)Nc2cc(F)c(C)cc2C(=O)O)c2oc(N3CCC(C)(C)CC3)cc(=O)c2c1` (stereo not shown) [Example 18, 2-[1-[2-(4,4-Dimethyl-1-piperidyl)-6-methyl-4-oxo-chromen-8-yl]ethylamino]-4-fluoro-5-methyl-benzoic acid] was 15 to 24 µM; that for `Cc1cc(C(C)Nc2ccccc2S(N)(=O)=O)c2oc(N3CCC(C)(C)CC3)cc(=O)c2c1` (stereo not shown) [Example 21, 2-[1-[2-(4,4-Dimethyl-1-piperidyl)-6-methyl-4-oxo-chromen-8-yl]ethylamino]benzenesulfonamide] was 5 to 15 µM; that for `Cc1cc(C(C)Nc2cccc(F)c2C(=O)O)c2oc(N3CCC(C)(C)CC3)cc(=O)c2c1` (stereo not shown) [Example 23, 2-[1-[2-(4,4-Dimethyl-1-piperidyl)-6-methyl-4-oxo-chromen-8-yl]ethylamino]-6-fluoro-benzoic acid] was 5 to 15 µM.
